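Method: 48-hour compound exposure of cells in 96-well plates, five concentrations, linear interpolation of endpoints. Here, GI50 denotes the concentration required for 50% inhibition of growth. TGI is the concentration that stops growth completely.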
Tests used:
Assay in all cases: NCI tumour cell line growth inhibition, 48 h
OVCAR-8 ovarian = tested on: OVCAR-8 ovarian
SR leukemia = tested on: SR leukemia
K-562 leukemia = tested on: K-562 leukemia
U251 CNS = tested on: U251 CNS
HS 578T breast = tested on: HS 578T breast
OVCAR-5 ovarian = tested on: OVCAR-5 ovarian
SF-295 CNS = tested on: SF-295 CNS
NCI-H226 lung = tested on: NCI-H226 lung
HCT-15 colon = tested on: HCT-15 colon
MDA-MB-435 = tested on: MDA-MB-435
SF-539 CNS = tested on: SF-539 CNS
UACC-257 melanoma = tested on: UACC-257 melanoma
CAKI-1 renal = tested on: CAKI-1 renal
KM12 colon = tested on: KM12 colon
RPMI-8226 leukemia = tested on: RPMI-8226 leukemia
SN12C renal = tested on: SN12C renal
CCRF-CEM leukemia = tested on: CCRF-CEM leukemia
SNB-19 CNS = tested on: SNB-19 CNS
COLO 205 colon = tested on: COLO 205 colon
SF-268 CNS = tested on: SF-268 CNS
NCI-H460 lung = tested on: NCI-H460 lung
EKVX NSCLC = tested on: EKVX NSCLC
HT29 colon = tested on: HT29 colon
M14 melanoma = tested on: M14 melanoma
SK-MEL-2 melanoma = tested on: SK-MEL-2 melanoma
SK-MEL-5 melanoma = tested on: SK-MEL-5 melanoma
TK-10 renal = tested on: TK-10 renal
DU-145 prostate = tested on: DU-145 prostate
A498 renal = tested on: A498 renal
786-0 renal = tested on: 786-0 renal
PC-3 prostate = tested on: PC-3 prostate
NCI-H522 lung = tested on: NCI-H522 lung
MALME-3M melanoma = tested on: MALME-3M melanoma
ACHN renal = tested on: ACHN renal
MCF7 breast = tested on: MCF7 breast
MOLT-4 leukemia = tested on: MOLT-4 leukemia
UO-31 renal = tested on: UO-31 renal
HOP-92 NSCLC = tested on: HOP-92 NSCLC
BT-549 breast = tested on: BT-549 breast
UACC-62 melanoma = tested on: UACC-62 melanoma
IGROV1 ovarian = tested on: IGROV1 ovarian
RXF 393 renal = tested on: RXF 393 renal
HOP-62 NSCLC = tested on: HOP-62 NSCLC
HCT-116 colon = tested on: HCT-116 colon
NCI-H23 lung = tested on: NCI-H23 lung
SK-MEL-28 melanoma = tested on: SK-MEL-28 melanoma
HL-60(TB) leukemia = tested on: HL-60(TB) leukemia
SW-620 colon = tested on: SW-620 colon
SNB-75 CNS = tested on: SNB-75 CNS
NCI/ADR-RES ovarian = tested on: NCI/ADR-RES ovarian
A549 NSCLC = tested on: A549 NSCLC
T-47D breast = tested on: T-47D breast
HCC-2998 colon = tested on: HCC-2998 colon
MDA-MB-231 breast = tested on: MDA-MB-231 breast
SK-OV-3 ovarian = tested on: SK-OV-3 ovarian
OVCAR-4 ovarian = tested on: OVCAR-4 ovarian

With `CN(Cc1ccccc1)S(=O)(=O)/N=C1\NC(=O)NC1=C(Cl)Cl` the GI50 (OVCAR-8 ovarian) was 2.37 µM, the TGI (OVCAR-8 ovarian) was 6.26 µM and the GI50 (SR leukemia) was 0.525 µM. The TGI (SR leukemia) was 11.5 µM, the GI50 (K-562 leukemia) was 1.04 µM and the TGI (K-562 leukemia) was greater than 100 µM. For the same molecule, the GI50 (U251 CNS) was 1.83 µM, the TGI (U251 CNS) was 3.53 µM and the GI50 (HS 578T breast) was 2.82 µM. The TGI (HS 578T breast) was 8.87 µM, the GI50 (OVCAR-5 ovarian) was 1.69 µM and the TGI (OVCAR-5 ovarian) was 3.17 µM. For the same molecule, the GI50 (SF-295 CNS) was 3.51 µM, the TGI (SF-295 CNS) was 12.2 µM and the GI50 (NCI-H226 lung) was 2.21 µM. The TGI (NCI-H226 lung) was 5.42 µM, the GI50 (HCT-15 colon) was 1.52 µM and the TGI (HCT-15 colon) was 3.11 µM. It also gave a GI50 (MDA-MB-435) of 1.8 µM, a TGI (MDA-MB-435) of 3.45 µM and a GI50 (SF-539 CNS) of 1.74 µM. It also gave a TGI (SF-539 CNS) of 3.25 µM, a GI50 (UACC-257 melanoma) of 2.22 µM and a TGI (UACC-257 melanoma) of 5.29 µM. It also gave a GI50 (CAKI-1 renal) of 1.67 µM, a TGI (CAKI-1 renal) of 3.12 µM and a GI50 (KM12 colon) of 0.27 µM. It also gave a TGI (KM12 colon) of 0.744 µM, a GI50 (RPMI-8226 leukemia) of 0.323 µM and a TGI (RPMI-8226 leukemia) of 1.9 µM. It also gave a GI50 (SN12C renal) of 1.81 µM, a TGI (SN12C renal) of 3.38 µM and a GI50 (CCRF-CEM leukemia) of 1.94 µM. For the same molecule, the TGI (CCRF-CEM leukemia) was 5.08 µM, the GI50 (SNB-19 CNS) was 2.23 µM and the TGI (SNB-19 CNS) was 5.32 µM. It also gave a GI50 (COLO 205 colon) of 1.96 µM, a TGI (COLO 205 colon) of 3.98 µM and a GI50 (SF-268 CNS) of 2.46 µM. For the same molecule, the TGI (SF-268 CNS) was 7.02 µM, the GI50 (NCI-H460 lung) was 2.39 µM and the TGI (NCI-H460 lung) was 5.68 µM. It also gave a GI50 (EKVX NSCLC) of 1.84 µM, a TGI (EKVX NSCLC) of 3.81 µM and a GI50 (HT29 colon) of 2.07 µM. For the same molecule, the TGI (HT29 colon) was 4.72 µM, the GI50 (M14 melanoma) was 1.76 µM and the TGI (M14 melanoma) was 3.51 µM. The GI50 (SK-MEL-2 melanoma) was 2.76 µM, the TGI (SK-MEL-2 melanoma) was 7.84 µM and the GI50 (SK-MEL-5 melanoma) was 2.05 µM. It also gave a TGI (SK-MEL-5 melanoma) of 4.27 µM, a GI50 (TK-10 renal) of 2.47 µM and a TGI (TK-10 renal) of 29.9 µM. It also gave a GI50 (DU-145 prostate) of 2.37 µM, a TGI (DU-145 prostate) of 5.34 µM and a GI50 (A498 renal) of 2.19 µM. For the same molecule, the TGI (A498 renal) was 6.31 µM, the GI50 (786-0 renal) was 2.06 µM and the TGI (786-0 renal) was 4.6 µM. The GI50 (PC-3 prostate) was 2.02 µM, the TGI (PC-3 prostate) was 4.39 µM and the GI50 (NCI-H522 lung) was 1.99 µM. The TGI (NCI-H522 lung) was 4.31 µM, the GI50 (MALME-3M melanoma) was 1.79 µM and the TGI (MALME-3M melanoma) was 3.48 µM. It also gave a GI50 (ACHN renal) of 1.77 µM, a TGI (ACHN renal) of 3.19 µM and a GI50 (MCF7 breast) of 0.338 µM. It also gave a TGI (MCF7 breast) of 13.5 µM, a GI50 (MOLT-4 leukemia) of 2.52 µM and a TGI (MOLT-4 leukemia) of 7.03 µM. The GI50 (UO-31 renal) was 2.45 µM, the TGI (UO-31 renal) was 10.4 µM and the GI50 (HOP-92 NSCLC) was 1.74 µM. For the same molecule, the TGI (HOP-92 NSCLC) was 3.36 µM, the GI50 (BT-549 breast) was 1.88 µM and the TGI (BT-549 breast) was 3.47 µM. The GI50 (UACC-62 melanoma) was 1.73 µM, the TGI (UACC-62 melanoma) was 3.32 µM and the GI50 (IGROV1 ovarian) was 1.88 µM. For the same molecule, the TGI (IGROV1 ovarian) was 3.75 µM, the GI50 (RXF 393 renal) was 1.8 µM and the TGI (RXF 393 renal) was 3.51 µM. It also gave a GI50 (HOP-62 NSCLC) of 3.01 µM, a TGI (HOP-62 NSCLC) of 11.5 µM and a GI50 (HCT-116 colon) of 1.94 µM. It also gave a TGI (HCT-116 colon) of 3.81 µM, a GI50 (NCI-H23 lung) of 1.79 µM and a TGI (NCI-H23 lung) of 3.55 µM. For the same molecule, the GI50 (SK-MEL-28 melanoma) was 1.77 µM, the TGI (SK-MEL-28 melanoma) was 3.29 µM and the GI50 (HL-60(TB) leukemia) was 2.08 µM. It also gave a TGI (HL-60(TB) leukemia) of 5.35 µM, a GI50 (SW-620 colon) of 1.8 µM and a TGI (SW-620 colon) of 3.55 µM. For the same molecule, the GI50 (SNB-75 CNS) was 2.04 µM, the TGI (SNB-75 CNS) was 9.32 µM and the GI50 (NCI/ADR-RES ovarian) was 2.1 µM. It also gave a TGI (NCI/ADR-RES ovarian) of 4.96 µM, a GI50 (A549 NSCLC) of 3.9 µM and a TGI (A549 NSCLC) of 16.8 µM. For the same molecule, the GI50 (T-47D breast) was 1.59 µM, the TGI (T-47D breast) was 21.8 µM and the GI50 (HCC-2998 colon) was 1.73 µM. It also gave a TGI (HCC-2998 colon) of 3.3 µM, a GI50 (MDA-MB-231 breast) of 1.79 µM and a TGI (MDA-MB-231 breast) of 3.3 µM. For the same molecule, the GI50 (SK-OV-3 ovarian) was 15.7 µM, the TGI (SK-OV-3 ovarian) was 29.2 µM and the GI50 (OVCAR-4 ovarian) was 1.84 µM. The TGI (OVCAR-4 ovarian) was 3.64 µM.
